Target: T1, MIF produced by THP-1 cells (Homo sapiens, UniProt P14174)
T1 construct: a test cell may express the MIF naturally (e.g., THP-1 cells); endogenous in cells; host or cells: THP-1 cells stimulated with LPS
T1 sequence (P14174 2-115 limits assumed): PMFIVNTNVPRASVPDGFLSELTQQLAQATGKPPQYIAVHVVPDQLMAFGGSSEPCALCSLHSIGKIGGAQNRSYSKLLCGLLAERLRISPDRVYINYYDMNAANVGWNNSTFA
Experiment: ELISA of immunoreactive MIF from LPS stimulated THP-1 cells treated with compound
Format: cell-based
Conditions: LPS stimulated THP-1 cells, incubated overnight; read-out: ED50, inhibition of the ability of the antibody to recognize MIF (ELISA)
Method: Alternatively, ELISA may be preferred to detect and quantify the amount of MIF in cell supernatants. ELISA is preferred for detection in high throughput screening. Briefly, 96-well plates are coated with an anti-MIF antibody or anti-tag antibody, washed, and blocked with 2% BSA. Cell supernatant is then added to the wells. Following incubation and washing, a second antibody (e.g., to MIF) is added. The second antibody may be coupled to a label or detecting reagent, such as an enzyme or to biotin. Following further incubation, a developing reagent is added and the amount of MIF determined using an ELISA plate reader. The developing reagent is a substrate for the enzyme coupled to the second antibody (typically an anti-isotype antibody) or for the enzyme coupled to streptavidin. Suitable enzymes are well known in the art and include horseradish peroxidase, which acts upon a substrate (e.g., ABTS) resulting in a colorimetric reaction. It is recognized that rather than using a second antibody coupled to an enzyme, the anti-MIF antibody may be directly coupled to the horseradish peroxidase, or other equivalent detection reagent. If desired, cell supernatants may be concentrated to raise the detection level. Further, detection methods, such as ELISA and the like may be employed to monitor intracellular as well as extracellular levels of MIF. When intracellular levels are desired, a cell lysate is preferred. When extracellular levels are desired, media can be screened.
In another experiment (FIG. 2), varying concentrations of five different inhibitor analogs were added to LPS stimulated THP-1 cells and allowed to incubate overnight. The following day the amount of immunoreactive MIF detected was evaluated by ELISA. Compound 7e inhibited the ability of the antibody to recognize MIF in a dose dependent fashion with an ED50 of 2 μM, similar to the response obtained with analogs compound 7b and compound 7d.
In a further experiment (FIG. 3), the ability of compound 7e to decrease the immunoreactivity of MIF produced by THP-1 cells was determined. THP-1 cells were treated with 10 μg/ml of LPS and 10 μM of compound 7e was added at various times post-LPS stimulation and immunoreactivity monitored with an anti-MIF monoclonal. […] Thus, this experiment measures the activity of compounds or buffer alone controls on MIF detection when the compounds are initially added at various times to cell cultures and then the corresponding conditioned media samples are processed in a time dependent fashion thereafter.

| EC50 [µM] | Compound |
| --- | --- |
| ~2 | CCOC(=O)c1c(N2CCN(C(=O)c3ccccc3)CC2)c2ccccc2n(C)c1=O [compound 7d] |
| ~2 | Cn1c(=O)c([N+](=O)[O-])c(N2CCN(C(=O)c3ccccc3)CC2)c2ccccc21 [compound 7b] |
